From patent publication US20230085307A1, “PYRIDAZINONE COMPOUND AND HERBICIDE” (NISSAN CHEMICAL CORPORATION, priority 2019, published 2023)

How the values were obtained:
windgrass [1] = experiment: Test Example 5: herbicidal effect by foliage application, plastic box (Table 20, symbol L); assay type: in vivo, windgrass (Apera spica-venti); conditions: foliage application, 320 g/ha, evaluated three weeks after application
Method in brief: (§1)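 Plants were sown into sterilized diluvial soil under about 1.5 cm cover and kept in a greenhouse at 25° C. to 30° C. Fourteen days on, foliage received an even spray of the diluted emulsion. Herbicidal or crop effect was judged three weeks afterwards.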

southern crabgrass [2] = experiment: Test Example 5: herbicidal effect by foliage application, plastic box (Table 20, symbol F); assay type: in vivo, southern crabgrass (Digitaria ciliaris); conditions: foliage application, 320 g/ha, evaluated three weeks after application
Method in brief: as §1

chickweed [3] = experiment: Test Example 5: herbicidal effect by foliage application, plastic box (Table 20, symbol P); assay type: in vivo, common chickweed (Stellaria media); conditions: foliage application, 320 g/ha, evaluated three weeks after application
Method in brief: as §1

Italian ryegrass [4] = experiment: Test Example 4: herbicidal effect by soil treatment (Table 19, symbol K); assay type: in vivo, Italian ryegrass (Lolium multiflorum); conditions: amount of applied herbicide 320 g/ha
Method in brief: (§2)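 In this soil treatment, the formulated compound reached the seeds only through the soil: seeds were buried about 1.5 cm deep in sterilized diluvial soil, then the diluted emulsion was sprayed over the surface. After three weeks at 25° C. to 30° C. in a greenhouse, effects were graded on criteria from an earlier test.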

barnyard grass [5] = experiment: Test Example 4: herbicidal effect by soil treatment (Table 19, symbol H); assay type: in vivo, barnyard grass (Echinochloa crus-galli); conditions: amount of applied herbicide 320 g/ha
Method in brief: as §2

southern crabgrass [6] = experiment: Test Example 4: herbicidal effect by soil treatment (Table 19, symbol F); assay type: in vivo, southern crabgrass (Digitaria ciliaris); conditions: amount of applied herbicide 320 g/ha
Method in brief: as §2

wild oat [7] = experiment: Test Example 4: herbicidal effect by soil treatment (Table 19, symbol I); assay type: in vivo, wild oat (Avena fatua); conditions: amount of applied herbicide 320 g/ha
Method in brief: as §2

redroot pigweed [8] = experiment: Test Example 4: herbicidal effect by soil treatment (Table 19, symbol N); assay type: in vivo, redroot pigweed (Amaranthus retroflexus); conditions: amount of applied herbicide 320 g/ha
Method in brief: as §2

false cleavers = experiment: Test Example 4: herbicidal effect by soil treatment (Table 19, symbol Q); assay type: in vivo, false cleavers (Galium spurium); conditions: amount of applied herbicide 320 g/ha
Method in brief: as §2

green foxtail [9] = experiment: Test Example 4: herbicidal effect by soil treatment (Table 19, symbol G); assay type: in vivo, green foxtail (Setaria viridis); conditions: amount of applied herbicide 320 g/ha
Method in brief: as §2

lambsquarters [10] = experiment: Test Example 4: herbicidal effect by soil treatment (Table 19, symbol O); assay type: in vivo, lambsquarters (Chenopodium album); conditions: amount of applied herbicide 320 g/ha
Method in brief: as §2

velvetleaf [11] = experiment: Test Example 5: herbicidal effect by foliage application, plastic box (Table 20, symbol M); assay type: in vivo, velvetleaf (Abutilon theophrasti); conditions: foliage application, 320 g/ha, evaluated three weeks after application
Method in brief: as §1

persian speedwell [12] = experiment: Test Example 4: herbicidal effect by soil treatment (Table 19, symbol R); assay type: in vivo, Persian speedwell (Veronica persica); conditions: amount of applied herbicide 320 g/ha
Method in brief: as §2

rice flat sedge = experiment: Test Example 3: herbicidal effect by foliage application, Wagner pot (Table 18, symbol E); assay type: in vivo, rice flat sedge (Cyperus iria); conditions: amount of applied herbicide 320 g/ha
Method in brief: (§3)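 Plants were sown in alluvial soil held under 0.1–0.5 cm standing water and grown 14 days in a greenhouse at 25–30 °C. An emulsifiable formulation, water-diluted to the set dose, was then sprayed onto the foliage, and effects were scored three weeks later using previously defined criteria.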

windgrass [13] = experiment: Test Example 4: herbicidal effect by soil treatment (Table 19, symbol L); assay type: in vivo, windgrass (Apera spica-venti); conditions: amount of applied herbicide 320 g/ha
Method in brief: as §2

chickweed [14] = experiment: Test Example 4: herbicidal effect by soil treatment (Table 19, symbol P); assay type: in vivo, common chickweed (Stellaria media); conditions: amount of applied herbicide 320 g/ha
Method in brief: as §2

Italian ryegrass [15] = experiment: Test Example 5: herbicidal effect by foliage application, plastic box (Table 20, symbol K); assay type: in vivo, Italian ryegrass (Lolium multiflorum); conditions: foliage application, 320 g/ha, evaluated three weeks after application
Method in brief: as §1

barnyard grass [16] = experiment: Test Example 3: herbicidal effect by foliage application, Wagner pot (Table 18, symbol H); assay type: in vivo, barnyard grass (Echinochloa crus-galli); conditions: amount of applied herbicide 320 g/ha
Method in brief: as §3

green foxtail [17] = experiment: Test Example 5: herbicidal effect by foliage application, plastic box (Table 20, symbol G); assay type: in vivo, green foxtail (Setaria viridis); conditions: foliage application, 320 g/ha, evaluated three weeks after application
Method in brief: as §1

lambsquarters [18] = experiment: Test Example 5: herbicidal effect by foliage application, plastic box (Table 20, symbol O); assay type: in vivo, lambsquarters (Chenopodium album); conditions: foliage application, 320 g/ha, evaluated three weeks after application
Method in brief: as §1

blackgrass [19] = experiment: Test Example 5: herbicidal effect by foliage application, plastic box (Table 20, symbol J); assay type: in vivo, blackgrass (Alopecurus myosuroides); conditions: foliage application, 320 g/ha, evaluated three weeks after application
Method in brief: as §1

blackgrass [20] = experiment: Test Example 4: herbicidal effect by soil treatment (Table 19, symbol J); assay type: in vivo, blackgrass (Alopecurus myosuroides); conditions: amount of applied herbicide 320 g/ha
Method in brief: as §2

redroot pigweed [21] = experiment: Test Example 5: herbicidal effect by foliage application, plastic box (Table 20, symbol N); assay type: in vivo, redroot pigweed (Amaranthus retroflexus); conditions: foliage application, 320 g/ha, evaluated three weeks after application
Method in brief: as §1

velvetleaf [22] = experiment: Test Example 4: herbicidal effect by soil treatment (Table 19, symbol M); assay type: in vivo, velvetleaf (Abutilon theophrasti); conditions: amount of applied herbicide 320 g/ha
Method in brief: as §2

barnyard grass [23] = experiment: Test Example 5: herbicidal effect by foliage application, plastic box (Table 20, symbol H); assay type: in vivo, barnyard grass (Echinochloa crus-galli); conditions: foliage application, 320 g/ha, evaluated three weeks after application
Method in brief: as §1

Chinese sprangletop = experiment: Test Example 3: herbicidal effect by foliage application, Wagner pot (Table 18, symbol D); assay type: in vivo, chinese sprangletop (Leptochloa chinensis); conditions: amount of applied herbicide 320 g/ha
Method in brief: as §3

persian speedwell [24] = experiment: Test Example 5: herbicidal effect by foliage application, plastic box (Table 20, symbol R); assay type: in vivo, Persian speedwell (Veronica persica); conditions: foliage application, 320 g/ha, evaluated three weeks after application
Method in brief: as §1

wild oat [25] = experiment: Test Example 5: herbicidal effect by foliage application, plastic box (Table 20, symbol I); assay type: in vivo, wild oat (Avena fatua); conditions: foliage application, 320 g/ha, evaluated three weeks after application
Method in brief: as §1

Compound: CCSc1cccc(-c2sc3ccc(F)cc3c2-c2c(O)c(C)nn(C)c2=O)c1 [2-242]
- herbicidal effect on L: windgrass (criteria 0-5) (windgrass [1]): 4 (Herbicidal rate of 70% or more and less than 90%)
- herbicidal effect on F: southern crabgrass (criteria 0-5) (southern crabgrass [2]): 3 (Herbicidal rate of 40% or more and less than 70%)
- herbicidal effect on P: chickweed (criteria 0-5) (chickweed [3]): 5 (Herbicidal rate of 90% or more (almost completely withered))
- herbicidal effect on K: Italian ryegrass (Italian ryegrass [4]): 0 (Herbicidal rate of 5% or less (almost no effect))
- herbicidal effect on H: barnyard grass (barnyard grass [5]): 0 (Herbicidal rate of 5% or less (almost no effect))
- herbicidal effect on F: southern crabgrass (southern crabgrass [6]): 0 (Herbicidal rate of 5% or less (almost no effect))
- herbicidal effect on I: wild oat (wild oat [7]): 0 (Herbicidal rate of 5% or less (almost no effect))
- herbicidal effect on N: redroot pigweed (redroot pigweed [8]): 2 (Herbicidal rate of 20% or more and less than 40%)
- herbicidal effect on Q: false cleavers (false cleavers): 0 (Herbicidal rate of 5% or less (almost no effect))
- herbicidal effect on G: green foxtail (green foxtail [9]): 0 (Herbicidal rate of 5% or less (almost no effect))
- herbicidal effect on O: lambsquarters (lambsquarters [10]): 1 (Herbicidal rate of 5% or more and less than 20%)
- herbicidal effect on M: velvetleaf (criteria 0-5) (velvetleaf [11]): 3 (Herbicidal rate of 40% or more and less than 70%)
- herbicidal effect on R: persian speedwell (persian speedwell [12]): 4 (Herbicidal rate of 70% or more and less than 90%)
- herbicidal effect on E: rice flat sedge (rice flat sedge): 2 (Herbicidal rate of 20% or more and less than 40%)
- herbicidal effect on L: windgrass (windgrass [13]): 0 (Herbicidal rate of 5% or less (almost no effect))
- herbicidal effect on P: chickweed (chickweed [14]): 1 (Herbicidal rate of 5% or more and less than 20%)
- herbicidal effect on K: Italian ryegrass (criteria 0-5) (Italian ryegrass [15]): 1 (Herbicidal rate of 5% or more and less than 20%)
- herbicidal effect on H: barnyard grass (barnyard grass [16]): 3 (Herbicidal rate of 40% or more and less than 70%)
- herbicidal effect on G: green foxtail (criteria 0-5) (green foxtail [17]): 3 (Herbicidal rate of 40% or more and less than 70%)
- herbicidal effect on O: lambsquarters (criteria 0-5) (lambsquarters [18]): 3 (Herbicidal rate of 40% or more and less than 70%)
- herbicidal effect on J: blackgrass (criteria 0-5) (blackgrass [19]): 0 (Herbicidal rate of 5% or less (almost no effect))
- herbicidal effect on J: blackgrass (blackgrass [20]): 0 (Herbicidal rate of 5% or less (almost no effect))
- herbicidal effect on N: redroot pigweed (criteria 0-5) (redroot pigweed [21]): 4 (Herbicidal rate of 70% or more and less than 90%)
- herbicidal effect on M: velvetleaf (velvetleaf [22]): 0 (Herbicidal rate of 5% or less (almost no effect))
- herbicidal effect on H: barnyard grass (criteria 0-5) (barnyard grass [23]): 1 (Herbicidal rate of 5% or more and less than 20%)
- herbicidal effect on D: Chinese sprangletop (Chinese sprangletop): 0 (Herbicidal rate of 5% or less (almost no effect))
- herbicidal effect on R: persian speedwell (criteria 0-5) (persian speedwell [24]): 5 (Herbicidal rate of 90% or more (almost completely withered))
- herbicidal effect on I: wild oat (criteria 0-5) (wild oat [25]): 4 (Herbicidal rate of 70% or more and less than 90%)
